Results taken from ChEMBL document CHEMBL1933051, “Cytotoxic bistetrahydrofuran annonaceous acetogenins from the seeds of Annona squamosa” (J Nat Prod, 2011).
≈ marks a conversion by molar mass, not a printed value.

Legend:
Format in all cases: functional, cell-based
HeLa = assay: Cytotoxicity against human HeLa cells by MTT assay
MKN-45 = assay: Cytotoxicity against human MKN45 cells by MTT assay
A549 = assay: Cytotoxicity against human A549 cells by MTT assay
MCF7 = assay: Cytotoxicity against human MCF7 cells by MTT assay
SMMC-7721 = assay: Cytotoxicity against human SMMC7721 cells by MTT assay
HepG2 = assay: Cytotoxicity against human HepG2 cells by MTT assay

O=c1[nH]cc(F)c(=O)[nH]1 [FLUOROURACIL] showed an IC50 (HeLa) of 0.14 µg/mL (≈ 1.08 µM), an IC50 (MKN-45) of 0.36 µg/mL (≈ 2.77 µM) and an IC50 (A549) of 0.32 µg/mL (≈ 2.46 µM). It also gave an IC50 (MCF7) of 0.22 µg/mL (≈ 1.69 µM), an IC50 (SMMC-7721) of 0.023 µg/mL (≈ 0.177 µM) and an IC50 (HepG2) of 0.0082 µg/mL (≈ 0.063 µM).
CCCCCCCCCC[C@@H](O)[C@H]1CC[C@H]([C@H]2CC[C@H]([C@H](O)CCCCCCCCC[C@H](O)CCC3=C[C@H](C)OC3=O)O2)O1 [UVARIGRANDIN A] showed an IC50 (HeLa) of 0.07 µg/mL (≈ 0.112 µM), an IC50 (MKN-45) of 0.069 µg/mL (≈ 0.111 µM) and an IC50 (A549) of 0.08 µg/mL (≈ 0.128 µM). For the same molecule, the IC50 (MCF7) was 0.096 µg/mL (≈ 0.154 µM), the IC50 (SMMC-7721) was 0.0029 µg/mL (≈ 0.00466 µM) and the IC50 (HepG2) was 0.78 µg/mL (≈ 1.25 µM).
CCCCCCCCCC[C@@H](O)[C@@H]1CC[C@@H]([C@@H]2CC[C@@H]([C@H](O)CCCCCCCCCC(O)CC3=CC(C)OC3=O)O2)O1 (stereo partly drawn) [BULLATACIN] showed an IC50 (HeLa) of 0.034 µg/mL (≈ 0.0558 µM), an IC50 (MKN-45) of 0.053 µg/mL (≈ 0.087 µM) and an IC50 (A549) of 0.033 µg/mL (≈ 0.0542 µM). For the same molecule, the IC50 (MCF7) was 0.043 µg/mL (≈ 0.0706 µM), the IC50 (SMMC-7721) was 0.0048 µg/mL (≈ 0.00788 µM) and the IC50 (HepG2) was 0.032 µg/mL (≈ 0.0526 µM).
CCCCCCCCCC[C@H](O)[C@@H]1CC[C@@H]([C@H](O)CC[C@@H](O)[C@@H]2CC[C@@H](CCCCCCCCCC3=C[C@@H](C)OC3=O)O2)O1 [Squamostatin-D] gave an IC50 (HeLa) of 0.1 µg/mL (≈ 0.161 µM), an IC50 (MKN-45) of 0.87 µg/mL (≈ 1.4 µM) and an IC50 (A549) of 0.046 µg/mL (≈ 0.0738 µM). The IC50 (MCF7) was 0.11 µg/mL (≈ 0.177 µM), the IC50 (SMMC-7721) was 0.25 µg/mL (≈ 0.401 µM) and the IC50 (HepG2) was 0.56 µg/mL (≈ 0.899 µM).
CCCCCCCCCCCC(O)CCC[C@H](O)[C@H]1CC[C@H]([C@H]2CC[C@H]([C@H](O)CCCCCCCC3=C[C@H](C)OC3=O)O2)O1 (relative stereo) was tested, and the IC50 (HeLa) was 0.025 µg/mL (≈ 0.0401 µM), the IC50 (MKN-45) was 0.042 µg/mL (≈ 0.0674 µM) and the IC50 (A549) was 0.012 µg/mL (≈ 0.0193 µM). It also gave an IC50 (MCF7) of 0.052 µg/mL (≈ 0.0835 µM), an IC50 (SMMC-7721) of 0.057 µg/mL (≈ 0.0915 µM) and an IC50 (HepG2) of 0.022 µg/mL (≈ 0.0353 µM).
With CCCCCC[C@@H](O)CCC[C@H](O)[C@@H]1CC[C@@H]([C@H](O)CC[C@@H](O)[C@@H]2CC[C@@H](CCCCCCCCCC3=C[C@@H](C)OC3=O)O2)O1 [Squamostatin-A] the IC50 (HeLa) was 0.45 µg/mL (≈ 0.704 µM), the IC50 (MKN-45) was 0.93 µg/mL (≈ 1.46 µM) and the IC50 (A549) was 0.21 µg/mL (≈ 0.329 µM). For the same molecule, the IC50 (MCF7) was 0.15 µg/mL (≈ 0.235 µM), the IC50 (SMMC-7721) was 0.49 µg/mL (≈ 0.767 µM) and the IC50 (HepG2) was 0.83 µg/mL (≈ 1.3 µM).
With CCCCC[C@H](O)[C@@H]1CC[C@@H]([C@H](O)CC[C@H](O)[C@@H]2CC[C@@H](CCCCCCCCCCCC[C@@H](O)CC3=C[C@H](C)OC3=O)O2)O1 (relative stereo) the IC50 (HeLa) was 1.5 µg/mL (≈ 2.35 µM), the IC50 (MKN-45) was 0.59 µg/mL (≈ 0.923 µM) and the IC50 (A549) was 0.68 µg/mL (≈ 1.06 µM). The IC50 (MCF7) was 0.75 µg/mL (≈ 1.17 µM), the IC50 (SMMC-7721) was 0.39 µg/mL (≈ 0.61 µM) and the IC50 (HepG2) was 0.8 µg/mL (≈ 1.25 µM).
In the case of CCCC[C@H](O)[C@H](O)[C@@H]1CC[C@@H]([C@H](O)CC[C@H](O)[C@@H]2CC[C@@H](CCCCCCCCCCCCCCC3=C[C@H](C)OC3=O)O2)O1 (relative stereo), the IC50 (HeLa) is reported as 0.57 µg/mL (≈ 0.892 µM), the IC50 (MKN-45) is reported as 0.14 µg/mL (≈ 0.219 µM) and the IC50 (A549) is reported as 0.31 µg/mL (≈ 0.485 µM). It also gave an IC50 (MCF7) of 0.5 µg/mL (≈ 0.783 µM), an IC50 (SMMC-7721) of 0.11 µg/mL (≈ 0.172 µM) and an IC50 (HepG2) of 0.17 µg/mL (≈ 0.266 µM).
